Assay results taken from paper PMC9455983 (International Journal of Molecular Sciences, 2022).
pKi: −log10 of the molar value. Like-named read-outs stand apart in the source and are kept apart here.

Experiments:
[1] = target: T1, delta-opioid receptor (DOR) (Rattus norvegicus, UniProt P33533); assay: DOR radioligand competition binding assay ([3H]-DPDPE); settings: Delta screening results
T1 construct: Rat cortices were homogenized using 50 mM Tris, pH 7.4, 10 mM MgCl2-6H2O, 200 µM PMSF; from tissue; host or cells: rat cortex membranes
Method: DOR binding assay: Rat cortices were homogenized using 50 mM Tris, pH 7.4, 10 mM MgCl2-6H2O, 200 µM PMSF, centrifuged and incubated as above. Each assay tube contained 2 nM [^3H]-DPDPE. Assay tubes were incubated for 2.5 h at 25 °C. Unlabeled DPDPE was used as a competitor to generate a standard curve and determine nonspecific binding.
(§1) All three binding assays were terminated by filtration through GF/B filters, soaked in 5 mg/mL bovine serum albumin, 50 mM Tris, pH 7.4, on a Tomtec Mach II Harvester 96. The filters were subsequently washed with 6 mL of assay buffer. Bound radioactivity was counted on a Wallac Betaplate Liquid Scintillation Counter. Experiments were conducted using two replicates and repeated twice. Values in Scheme 2 represent the mean ± SD of two experiments with two replicates in each test.

[2] = target: T2, kappa-opioid receptor (KOR) (Cavia porcellus, UniProt P41144); assay: KOR radioligand competition binding assay ([3H]U69,593); set-up: species or system guinea pig; settings: Kappa screening results
T2 construct: Guinea pig cortices and cerebella were homogenized using 50 mM Tris, pH 7.4; from tissue; host or cells: guinea pig cortex and cerebellum membranes
Method: KOR binding assay: Guinea pig cortices and cerebella were homogenized using 50 mM Tris, pH 7.4, 10 mM MgCl2-6H2O, […] centrifuged and incubated as above. Each assay tube contained 2 nM [^3H]U69,593. Assay tubes were incubated for 2 h at 25 °C. Unlabeled U50,488 was used as a competitor to generate a standard curve and determine nonspecific binding.
as §1

[3] = target: T3, mu-opioid receptor (MOR) (Rattus norvegicus, UniProt P33535); assay: MOR radioligand competition binding assay ([3H]-DAMGO); settings: Mu screening results
T3 construct: Rat cortices were homogenized using 50 mM Tris, pH 7.4, and centrifuged at 16,500 rpm for 10 min; from tissue; host or cells: rat cortex membranes
Method: MOR binding assay: Rat cortices were homogenized using 50 mM Tris, pH 7.4, and centrifuged at 16,500 rpm for 10 min. The pellets were resuspended in fresh buffer and incubated at 37 °C for 30 min. Following incubation, the suspensions were centrifuged as before, the resulting pellets were resuspended in 100 volumes of 50 mM Tris, pH 7.4 plus 2 mg/mL bovine serum and the suspensions combined. Each assay tube contained 0.5 mL of membrane suspension, 2 nM [^3H]-DAMGO, and 0.02 mg/mL mixture in a total volume of 0.65 mL [13, 45, 53, 55].
as §1

[4] = first Ki column, unit not printed (apparently M), read-out: Ki (first column)
[5] = mean of both Ki, unit inferred, read-out: MEAN (Ki)
[6] = mean of two experiments, read-out: Ki
[7] = second Ki column, unit not printed (apparently M), read-out: Ki (second column)
[8] = experiment 1, unit inferred, read-out: Ki (Exp 1)
[9] = experiment 2, unit inferred, read-out: Ki (Exp 2)
[10] = mean of Exp 1 and Exp 2, unit inferred, read-out: MEAN (Ki)

Structure (SMILES)	pKi [1, 4]	pKi [1, 5]	pKi [1, 6]	pKi [1, 7]	pKi [2, 8]	pKi [2, 9]	pKi [2, 10]	pKi [2, 6]	pKi [3, 8]	pKi [3, 9]	pKi [3, 10]	pKi [3, 6]
Cc1cc(O)cc(C)c1C[C@H]1CNC(=N)N1C[C@H](Cc1c(C)cc(O)cc1C)N1C[C@H](CC(C)C)NC1=N [1968-63]	5.64	5.62	5.62	5.60	5.79	5.83	5.81	5.81	7.20	7.01	7.09	7.09
Cc1cc(O)cc(C)c1C[C@H]1CN([C@@H](Cc2c(C)cc(O)cc2C)CN2C(=N)NC[C@@H]2Cc2c(C)cc(O)cc2C)C(=N)N1 [1968-64]	6.29	6.24	6.24	6.19	5.55	5.80	5.66	5.66	7.23	7.06	7.13	7.14
N=C1NC[C@H](Cc2ccccc2)N1C[C@H](Cc1ccccc1)N1C[C@H](Cc2ccccc2)NC1=N [1968-65]	5.13	5.14	5.14	5.14	4.78	4.82	4.80	4.80	5.63	5.55	5.59	5.59
CC(C)C[C@H]1CN([C@@H](Cc2ccc(O)cc2)CN2C(=N)NC[C@@H]2Cc2ccccc2)C(=N)N1 [1968-66]	4.74	–	–	–	5.58	5.48	5.52	5.52	5.69	5.70	5.69	5.70
Cc1cc(O)cc(C)c1C[C@@H](CN1C(=N)NC[C@@H]1Cc1ccccc1)N1C[C@H](Cc2ccccc2)NC1=N [1968-67]	6.08	6.08	6.08	6.08	5.91	5.95	5.93	5.93	6.64	6.75	6.69	6.69
Cc1cc(O)cc(C)c1C[C@H]1CN([C@@H](Cc2c(C)cc(O)cc2C)CN2C(=N)NC[C@@H]2Cc2ccccc2)C(=N)N1 [1968-68]	6.37	6.34	6.34	6.30	6.27	6.25	6.26	6.26	7.05	7.12	7.08	7.08
CC(C)C[C@H]1CN([C@@H](Cc2ccccc2)CN2C(=N)NC[C@@H]2Cc2ccc(O)cc2)C(=N)N1 [1968-69]	5.37	5.33	5.33	5.30	5.67	5.67	5.67	5.67	6.68	6.73	6.70	6.70
N=C1NC[C@H](Cc2ccc(O)cc2)N1C[C@H](Cc1ccc(O)cc1)N1C[C@H](Cc2ccc(O)cc2)NC1=N [1968-70]	5.00	4.97	4.97	4.93	4.95	5.26	5.08	5.08	6.64	6.55	6.59	6.59
Cc1cc(O)cc(C)c1C[C@H]1CNC(=N)N1C[C@H](Cc1ccc(O)cc1)N1C[C@H](CC(C)C)NC1=N [1968-71]	5.42	5.46	5.47	5.52	6.43	6.41	6.42	6.42	7.24	7.28	7.26	7.25
